Experimental data as given in article PMC3371188 (Applied Microbiology and Biotechnology, 2012).

Molecular target: AldO (Streptomyces coelicolor, UniProt Q9ZBU1)
Assay: HRP-coupled H2O2 assay, thermostability and temperature optimum
Format: biochemical
Conditions: 10 mM xylitol; 50 mM potassium phosphate pH 7.5

Chain of AldO (Q9ZBU1 whole entry): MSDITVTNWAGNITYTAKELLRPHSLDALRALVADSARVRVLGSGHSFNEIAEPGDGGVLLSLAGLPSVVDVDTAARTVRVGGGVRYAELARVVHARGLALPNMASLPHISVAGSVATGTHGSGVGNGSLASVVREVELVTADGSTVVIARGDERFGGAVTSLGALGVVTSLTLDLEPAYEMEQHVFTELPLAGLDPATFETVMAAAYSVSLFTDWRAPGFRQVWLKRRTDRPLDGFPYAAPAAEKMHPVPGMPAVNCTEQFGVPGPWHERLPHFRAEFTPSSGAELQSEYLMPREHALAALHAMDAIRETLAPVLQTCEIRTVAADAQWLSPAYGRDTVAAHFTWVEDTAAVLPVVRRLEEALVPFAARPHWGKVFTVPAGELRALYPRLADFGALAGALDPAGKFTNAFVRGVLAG

SMILES: OC[C@@H](O)[C@H](O)[C@@H](O)CO [xylitol]
- HRP-coupled H2O2 assay, thermostability and temperature optimum: Oxidase activity with xylitol as substrate was measured after enzyme solutions had been incubated
